Read-outs that look alike come from different tables or passages of the source. Some results are limits rather than exact numbers.

In general, ED50 refers to the dose at which the effect has come halfway, by size or by number of responders.

Experiment [1] has as its system hypothermic effect caused by reserpine. Description: reserpine-antagonism, elimination of the hypothermic effect caused by reserpine. The class given is in vivo. As to conditions: Mus musculus, mice, oral, 17 hours after 2 mg/kg i.p. reserpine. As to the method: A further test for determining the anti-depressant activity is the reserpine-antagonism, the elimination of the hypothermic effect caused by reserpine. The test is carried out on mice, using 5 animals per dose. 17 Hours after i.p. administration of 2 mg/kg of reserpine, the body temperature is measured peripherally at a room temperature of 19° C. Afterwards, the test substance is administered orally, and the body temperature is measured after elapse of 1, 3, 5, and 7 hours. For each measurement a medium effective dose (ED50) is determined. This is the dose at which the body temperature of the animals treated with reserpine approaches the normal temperature of the untreated controls by 50%.

Experiment [2] relates to uptake of serotonine in the neurons. The experiment in a line: inhibition of serotonine uptake, synaptosomes from homogenized isolated cerebrum of the rat. The class given is biochemical. As to conditions: ten minutes at 37° C., 50% uptake inhibition, read-out: Serotinine inhibition IC 50. As to the method: (§1) It is known that various forms of depressions cause in certain sections of the brain a deficiency of biogenetic amines, especially of noradrenaline and serotonine; the biogenetic amines may be multiplied by inhibiting the uptake in the neurons. […] The test is performed on the homogenized, isolated cerebrum of the rat. A suspension of synaptosomes thus obtained is incubated with […] noradrenaline or serotonine and various concentrations of a solution of the test substance in water for ten minutes at 37° C. After completion of the incubation, the medium is separated by filtering, and the radioactivity of the suspension of synaptosomes is measured. A control test without test substance is made simultaneously in order to determine the quantity of uptake of the radioactive amines. The quantity of the test substance in mols which suffices for inhibiting 50% of the uptake is designated as IC 50.

The subject of experiment [3] is uptake of noradrenaline in the neurons. Description: inhibition of noradrenaline uptake, synaptosomes from homogenized isolated cerebrum of the rat. The settings on record: ten minutes at 37° C., 50% uptake inhibition, read-out: Noradrenalin inhibition IC 50. The class given is biochemical. As to the method:
as §1

The mark [4] stands for this setting: 1 hr., read-out: Reserpine antagonism ED50 after 1 hr.
[5] abbreviates: 3 hrs., read-out: Reserpine antagonism ED50 after 3 hrs.
Setting [6] is: 5 hrs., read-out: Reserpine antagonism ED50 after 5 hrs.
[7] abbreviates: 7 hrs., read-out: Reserpine antagonism ED50 after 7 hrs.

For the compound `CN1Cc2sc(Cl)cc2C(c2ccc(Br)cc2)C1.Cl` (stereo not drawn) [2-chloro-4-(4-bromophenyl)-6-methyl-4,5,6,7-tetrahydro-thieno[2,3-c] pyridine hydrochloride], the ED50 in experiment [1] (setting [4]) was determined as 50 mg/kg; in experiment [1] (setting [5]) it was 3 mg/kg; in experiment [1] (setting [6]), 4.2 mg/kg; in experiment [1] (setting [7]), 38 mg/kg. For the same compound, the IC50 in experiment [2] was found to be 3.5 µM; in experiment [3], 1 µM.

With `CN1Cc2sc(Cl)cc2C(c2ccc(Cl)cc2)C1.Cl` (stereo not drawn) [2-Chloro-4-(p-chloro-phenyl)-6-methyl-4,5,6,7-tetrahydro-thieno[2,3-c]pyridine hydrochloride], the ED50 was determined as 16 mg/kg in experiment [1] (setting [4]), 8.5 mg/kg in experiment [1] (setting [5]), 9.5 mg/kg in experiment [1] (setting [6]) and 10 mg/kg in experiment [1] (setting [7]). In addition, the IC50 in experiment [2] stood at 5.4 µM; in experiment [3], 1.6 µM.

On to `Cc1ccc(C2CN(C)Cc3sc(Cl)cc32)cc1.Cl` (stereo not drawn) [2-chloro-4-(p-tolyl)-6-methyl-4,5,6,7-tetrahydro-thieno[2,3-c] pyridine hydrochloride], for which the ED50 in experiment [1] (setting [4]) was found to be 44 mg/kg; in experiment [1] (setting [5]), 12.5 mg/kg; in experiment [1] (setting [6]) it was 18 mg/kg; in experiment [1] (setting [7]) it was 20 mg/kg. Also, the figures for the IC50 in experiment [2] and in experiment [3] were above 10 µM and 0.9 µM, respectively.

As to `CN1Cc2sc(Cl)cc2C(c2ccccc2)C1.Cl` (stereo not drawn) [2-Chloro-4-phenyl-6-methyl-4,5,6,7-tetrahydro-thieno[2,3-c]pyridine hydrochloride], the ED50 in experiment [1] (setting [4]) was 13 mg/kg; in experiment [1] (setting [5]), 30 mg/kg; in experiment [1] (setting [6]), 90 mg/kg; in experiment [1] (setting [7]), 90 mg/kg. For the same compound, the results for the IC50 in experiment [2] and in experiment [3] were above 10 µM and 1.4 µM, respectively.

On to `Cc1ccc(C2CN(C)Cc3sc(Br)cc32)cc1.Cl` (stereo not drawn) [2-bromo-4-(p-tolyl)-6-methyl-4,5,6,7-tetrahydro thieno[2,3-c] pyridine hydrochloride], for which the ED50 in experiment [1] (setting [4]) came to 48 mg/kg; in experiment [1] (setting [5]), 80 mg/kg; in experiment [1] (setting [6]) it was 80 mg/kg; in experiment [1] (setting [7]), 80 mg/kg. The IC50 in experiment [2] was 9 µM; in experiment [3], 0.64 µM.

Regarding `CN1Cc2sc(Br)cc2C(c2ccc(Br)cc2)C1` (stereo not drawn) [2-bromo-4-(p-bromophenyl)-6-methyl-4,5,6,7-tetrahydro-thieno[2,3-c]pyridine], the ED50 in experiment [1] (setting [4]) stood at 55 mg/kg; in experiment [1] (setting [5]), 7.5 mg/kg; in experiment [1] (setting [6]), 32 mg/kg; in experiment [1] (setting [7]) it was 100 mg/kg. In addition, the IC50 in experiment [2] was found to be 4.1 µM; in experiment [3] it was 1.6 µM.

As for `Cc1cc2c(s1)CN(C)CC2c1ccccc1.Cl` (stereo not drawn) [2,6-dimethyl-4-phenyl-4,5,6,7-tetrahydro-thieno[2,3-c]pyridine hydrochloride], the median effective dose (ED50) in experiment [1] (setting [4]) stood at 19 mg/kg; in experiment [1] (setting [5]) it was 25 mg/kg; in experiment [1] (setting [6]), 80 mg/kg; in experiment [1] (setting [7]) it was 80 mg/kg. Besides, the values for the IC50 in experiment [2] and in experiment [3] were 80 µM and 0.56 µM, respectively.

On to `Cc1cc2c(s1)CN(C)CC2c1ccc(Br)cc1.Cl` (stereo not drawn) [2,6-Dimethyl-4-(p-bromophenyl)-4,5,6,7-tetrahydro-thieno[2,3-c]pyridine hydrochloride], for which the ED50 in experiment [1] (setting [4]) was found to be 1.7 mg/kg; in experiment [1] (setting [5]), 2.7 mg/kg; in experiment [1] (setting [6]), 4.6 mg/kg; in experiment [1] (setting [7]) it was 80 mg/kg. Also, the IC50 in experiment [2] was 0.54 µM; in experiment [3] it was 0.28 µM.
